Patent US8008488B2 (Abbott GmbH & Co. KG, priority 2003, dated 2011)
pKi: −log10 of the molar value. Counter-ions that a name gives are not always drawn.

Legend:
[1] = target: T1, human dopamine D3 receptors (Homo sapiens, UniProt P35462); assay: Dopamine D3 receptor binding, displacement of [125I]-iodosulpride; conditions: membranes from HEK-293 cells with stably expressed human D3 receptors, 0.1 nM [125I]-iodosulpride
T1 construct: expressed in transfected cells
Protocol: (§1) The substance to be tested was dissolved either in methanol/Chremophor® (BASF-AG) or in dimethyl sulfoxide and then diluted with water to the desired concentration.
(§2) Triplicate mixtures were carried out.
The incubation buffer contained 50 mM Tris, 120 mM NaCl, 5 mM KCl, 2 mM CaCl2, 2 mM MgCl2 and 0.1% bovine serum albumin, 10 μM quinolone, 0.1% ascorbic acid (prepared fresh each day). The buffer was adjusted to pH 7.4 with HCl.
(§3) Measurement and Evaluation:
(§4) After incubation at 25° C. for 60 minutes, the mixtures were filtered under vacuum through Whatman GF/B glass fiber filters using a cell harvester. The filters were transferred by a filter transfer system into scintillation vials. After addition of 4 ml of Ultima Gold® (Packard), the samples were shaken for one hour and then the radioactivity was calculated in a beta counter (Packard, Tricarb 2000 or 2200CA). The cp values were converted into dpm by means of a standard quench series with the aid of the instrument's own program.
(§5) Evaluation of the inhibition plots took place by iterative nonlinear regression analysis using the Statistical Analysis System (SAS) similar to the “LIGAND” program described by Munson and Rodbard.

[2] = target: T2, human dopamine D2L receptors (long isoform) (Homo sapiens, UniProt P14416); assay: Dopamine D2L receptor binding, displacement of [125I]-iodospiperone; conditions: *Ki(D2L)/Ki(D3), HEK-293 membranes, 0.01 nM [125I]-iodospiperone
T2 construct: expressed in transfected cells
Protocol: as §1, §2
The incubation buffer contained 50 mM Tris, 120 mM NaCl, 5 mM KCl, 2 mM CaCl2, 2 mM MgCl2 and 0.1% bovine serum albumin. The buffer was adjusted to pH 7.4 with HCl.
as §3, §4, §5

T1 sequence (P35462 whole entry): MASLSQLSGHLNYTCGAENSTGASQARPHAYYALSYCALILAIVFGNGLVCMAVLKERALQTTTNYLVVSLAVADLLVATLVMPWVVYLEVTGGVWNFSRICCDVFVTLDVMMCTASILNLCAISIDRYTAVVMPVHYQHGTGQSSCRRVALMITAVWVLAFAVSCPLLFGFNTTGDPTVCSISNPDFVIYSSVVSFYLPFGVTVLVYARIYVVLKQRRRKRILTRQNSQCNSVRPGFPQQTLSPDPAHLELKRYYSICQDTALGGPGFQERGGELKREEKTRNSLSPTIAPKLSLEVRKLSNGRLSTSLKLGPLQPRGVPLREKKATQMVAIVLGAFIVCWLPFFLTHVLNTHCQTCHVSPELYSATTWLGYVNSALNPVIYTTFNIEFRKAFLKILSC
T2 sequence (P14416 whole entry, canonical isoform): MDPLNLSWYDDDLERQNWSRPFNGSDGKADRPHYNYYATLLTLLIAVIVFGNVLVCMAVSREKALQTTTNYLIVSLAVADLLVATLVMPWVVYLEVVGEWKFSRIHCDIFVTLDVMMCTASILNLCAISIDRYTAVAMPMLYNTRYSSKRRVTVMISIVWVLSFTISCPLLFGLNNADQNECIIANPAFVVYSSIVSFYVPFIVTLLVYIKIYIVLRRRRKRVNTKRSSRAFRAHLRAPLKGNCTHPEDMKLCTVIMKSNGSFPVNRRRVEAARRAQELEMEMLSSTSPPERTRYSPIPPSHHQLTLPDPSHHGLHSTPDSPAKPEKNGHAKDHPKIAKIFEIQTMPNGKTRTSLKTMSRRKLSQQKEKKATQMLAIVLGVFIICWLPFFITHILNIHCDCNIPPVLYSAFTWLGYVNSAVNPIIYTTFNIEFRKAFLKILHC

Compound	pKi [1]	Selectivity D3 vs. D2L* [2]
CCCc1cc(N2CCN(CCCCn3ccc(-c4ccccc4)nc3=O)CC2)nc(C(C)(C)C)n1 [Example 49, 1-{4-[4-(2-tert-Butyl-6-propylpyrimidin-4-yl)piperazin-1-yl]butyl}-4-phenyl-1H-pyrimidin-2-one]	9.27	86
Cc1cnc(=O)n(CCCCN2CCN(c3cc(C(F)(F)F)nc(C(C)(C)C)n3)CC2)c1 [Example 6, 1-(4-{4-[2-tert-Butyl-6-(trifluoromethyl)pyrimidin-4-yl]piperazin-1-yl}butyl)-5-methylpyrimidin-2(1H)-one]	7.51	35
CCCc1cc(N2CCN(CCCCn3cc(C#N)c(=O)[nH]c3=O)CC2)nc(C(C)(C)C)n1 [Example 47, 1-{4-[4-(2-tert-Butyl-6-propylpyrimidin-4-yl)piperazin-1-yl]butyl}-2,4-dioxo-1,2,3,4-tetrahydropyrimidine-5-carbonitrile]	8.31	51
C/C(=C\CN1CCN(c2cc(C(F)(F)F)nc(C(C)(C)C)n2)CC1)Cn1cc(C)c(=O)[nH]c1=O [Example 36, 1-((2E)-4-{4-[2-tert-Butyl-6-(trifluoromethyl)pyrimidin-4-yl]piperazin-1-yl}-2-methylbut-2-en-1-yl)-5-methylpyrimidine-2,4(1H,3H)-dione]	8.42	209
CCCc1cc(N2CCN(CCCCn3ccc(OCC)nc3=O)CC2)nc(C(C)(C)C)n1 [Example 86, 4-(2-tert-Butyl-6-propylpyrimidin-4-yl)-1-[4-(4-ethoxy-2-oxo-2H-pyrimidin-1-yl)butyl]piperazin-1-ium fumarate]	8.61	43
CCCc1cc(N2CCN(CCCCn3ccc(-c4cccc(F)c4)nc3=O)CC2)nc(C(C)(C)C)n1 [Example 72, 4-(2-tert-Butyl-6-propylpyrimidin-4-yl)-1-{4-[4-(3-fluorophenyl)-2-oxo-2H-pyrimidin-1-yl]butyl}piperazin-1-ium fumarate]	8.83	54
CCCc1cc(N2CCN(CCCCn3cc(F)c(=O)[nH]c3=O)CC2)nc(C(C)(C)C)n1 [Example 53, 1-{4-[4-(2-tert-Butyl-6-propylpyrimidin-4-yl)piperazin-1-yl]butyl}-5-fluoro-1H-pyrimidine-2,4-dione]	8.63	56
CCCc1cc(N2CCN(CCC(C)Cn3cc(C)c(=O)[nH]c3=O)CC2)nc(C(C)(C)C)n1 (stereo not drawn) [Example 70, 1-{4-[4-(2-tert-Butyl-6-propylpyrimidin-4-yl)piperazin-1-yl]-2-methylbutyl}-5-methyl-1H-pyrimidine-2,4-dione]	8.00	30
CC(C)c1ccn(CCCCN2CCN(c3cc(C(F)(F)F)nc(C(C)(C)C)n3)CC2)c(=O)n1 [Example 97, 4-(2-tert-Butyl-6-trifluoromethylpyrimidin-4-yl)-1-[4-(4-isopropyl-2-oxo-2H-pyrimidin-1-yl)butyl]piperazin-1-ium fumarate]	8.37	58
CCCc1cc(N2CCN(C(C)CCCn3ccc(=O)[nH]c3=O)CC2)nc(C(C)(C)C)n1 (stereo not drawn) [Example 61, 4-(2-tert-Butyl-6-propylpyrimidin-4-yl)-1-[4-(2,4-dioxo-3,4-dihydro-2H-pyrimidin-1-yl)-1-methylbutyl]piperazin-1-ium fumarate]	8.23	28
CC(C)(C)c1nc(N2CCN(CCCCn3cc(F)c(=O)[nH]c3=O)CC2)cc(C(F)(F)F)n1.Cl [Example 16, 1-[2-tert-Butyl-6-(trifluoromethyl)pyrimidin-4-yl]-4-[4-(5-fluoro-2,4-dioxo-3,4-dihydro-pyrimidin-1 (2H)-yl)butyl]piperazin-4-ium chloride]	8.52	201
CCCc1cc(N2CCN(C(C)CCCn3cc(C)c(=O)[nH]c3=O)CC2)nc(C(C)(C)C)n1 (single isomer, unassigned; (+)) [Example 63, (+)-1-{4-[4-(2-tert-Butyl-6-propylpyrimidin-4-yl)piperazin-1-yl]pentyl}-5-methyl-1H-pyrimidine-2,4-dione]	8.53	65
Cc1ccn(CCCCN2CCN(c3cc(C(F)(F)F)nc(C(C)(C)C)n3)CC2)c(=O)n1 [Example 8, 1-(4-{4-[2-tert-Butyl-6-(trifluoromethyl)pyrimidin-4-yl]piperazin-1-yl}butyl)-4-methylpyrimidin-2(1H)-one]	8.36	71
Cc1cn(CC(C)CCN2CCN(c3cc(C(F)(F)F)nc(C(C)(C)C)n3)CC2)c(=O)[nH]c1=O (single isomer, unassigned; (-)) [Example 64, (−)-1-{4-[4-(2-tert-Butyl-6-trifluoromethylpyrimidin-4-yl)piperazin-1-yl]-2-methylbutyl}-5-methyl-1H-pyrimidine-2,4-dione]	8.59	57
CC(C)(C)c1nc(N2CCN(CCCCn3ccc(-c4ccsc4)nc3=O)CC2)cc(C(F)(F)F)n1 [Example 92, 4-(2-tert-Butyl-6-trifluoromethylpyrimidin-4-yl)-1-[4-(2-oxo-4-thiophen-3-yl-2H-pyrimidin-1-yl)butyl]piperazin-1-ium fumarate]	8.34	31
CCCc1cc(N2CCN(CCCCn3cc(C(F)(F)F)c(=O)[nH]c3=O)CC2)nc(C(C)(C)C)n1 [Example 56, 1-{4-[4-(2-tert-Butyl-6-propylpyrimidin-4-yl)piperazin-1-yl]butyl}-5-trifluoromethyl-1H-pyrimidine-2,4-dione]	8.99	134
Cc1cn(CCCCN2CCN(c3cccc(C(F)(F)F)c3)CC2)c(=O)[nH]c1=O [Example 129, 5-Methyl-1-{4-[4-(3-trifluoromethylphenyl)piperazin-1-yl]butyl}-1H-pyrimidine-2,4-dione]	8.89	48
CCOc1ccn(CCCCN2CCN(c3cc(C(F)(F)F)nc(C(C)(C)C)n3)CC2)c(=O)n1 [Example 85, 4-(2-tert-Butyl-6-trifluoromethylpyrimidin-4-yl)-1-[4-(4-ethoxy-2-oxo-2H-pyrimidin-1-yl)butyl]piperazin-1-ium fumarate]	8.13	35
CCCc1cc(N2CCN(CCCCn3ccc(O)nc3=O)CC2)nc(C(C)(C)C)n1 [Example 20, 1-{4-[4-(2-tert-Butyl-6-propylpyrimidin-4-yl)piperazin-1-yl]butyl}-4-hydroxypyrimidin-2(1H)-one]	8.73	108
CC(C)(C)c1nc(C2CCC2)cc(N2CCN(CCCCn3ccc(=O)[nH]c3=O)CC2)n1 [Example 23, 1-{4-[4-(2-tert-Butyl-6-cyclobutylpyrimidin-4-yl)piperazin-1-yl]butyl}pyrimidine-2,4(1H,3H)-dione]	8.82	63
Cc1cn(CCCCN2CCN(c3cc(C4CCC4)nc(C(C)(C)C)n3)CC2)c(=O)nc1O [Example 22, 1-{4-[4-(2-tert-Butyl-6-cyclobutylpyrimidin-4-yl)piperazin-1-yl]butyl}-4-hydroxy-5-methylpyrimidin-2(1H)-one]	8.94	77
